Columns and labels:
Format in all cases: in vivo
[1] = system: crabgrass, large (large crabgrass, Digitaria sanguinalis); test: Test A pre-/postemergence: crabgrass, large
Summary of the method: (§1)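 Soil medium was loam blended with sand; treatments pre- and postemergence were applied concurrently, postemergence at one- to two-leaf stage. Approximately ten days in greenhouse preceded visual comparison with untreated controls, scored 0 (no effect) to 100 (complete control).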

[2] = system: sedge, umbrella (small-flower umbrella sedge Cyperus difformis); test: Test B flooded paddy: sedge, umbrella; settings: Flood, applied to paddy water at 2-leaf stage, visually evaluated after 13 to 15 days
Procedure: (§2) Seeds selected from rice (Oryza sativa), sedge, umbrella (small-flower umbrella sedge Cyperus difformis), ducksalad (Heteranthera limosa), and barnyardgrass (Echinochloa crus-galli) were grown to the 2-leaf stage for testing. At time of treatment, test pots were flooded to 3 cm above the soil surface, treated by application of test compounds directly to the paddy water, and then maintained at that water depth for the duration of the test.
(§3) Treated plants and controls were maintained in a greenhouse for 13 to 15 days, after which time all species were compared to controls and visually evaluated. Plant response ratings, summarized in Table B, are based on a scale of 0 to 100 where 0 is no effect and 100 is complete control. A dash (-) response means no test result.

rice (Oryza sativa) [3] = test: Test B flooded paddy: rice; settings: Flood, applied to paddy water at 2-leaf stage, visually evaluated after 13 to 15 days
Procedure: as §2, §3

[4] = system: wheat (Triticum aestivum); test: Test A pre-/postemergence: wheat
Summary of the method: as §1

[5] = system: foxtail, giant (giant foxtail, Setaria faberii); test: Test A pre-/postemergence: foxtail, giant
Summary of the method: as §1

corn (Zea mays) = test: Test A pre-/postemergence: corn
Summary of the method: as §1

[6] = system: pigweed (Amaranthus retroflexus); test: Test A pre-/postemergence: pigweed
Summary of the method: as §1

[7] = system: ducksalad (Heteranthera limosa); test: Test B flooded paddy: ducksalad; settings: Flood, applied to paddy water at 2-leaf stage, visually evaluated after 13 to 15 days
Procedure: as §2, §3

[8] = system: morningglory (Ipomoea spp.); test: Test A pre-/postemergence: morningglory
Summary of the method: as §1

[9] = system: velvetleaf (Abutilon theophrasti); test: Test A pre-/postemergence: velvetleaf
Summary of the method: as §1

[10] = system: barnyardgrass (Echinochloa crus-galli); test: Test A pre-/postemergence: barnyardgrass
Summary of the method: as §1

[11] = system: barnyardgrass (Echinochloa crus-galli); test: Test B flooded paddy: barnyardgrass; settings: Flood, applied to paddy water at 2-leaf stage, visually evaluated after 13 to 15 days
Procedure: as §2, §3

[12] = system: barnyardgrass (Echinochloa crus-galli); test: Test C flooded paddy test: barnyardgrass; settings: scale 0 to 100 (0 no effect, 100 complete control)
Summary of the method: (§4)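 Greenhouse plants treated at the 2-leaf stage by dosing the flood water (3 cm depth, maintained) were compared with controls after 13 to 15 days and rated 0 to 100, where 100 means complete control; a dash marks no test result.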

[13] = system: ducksalad (Heteranthera limosa); test: Test C flooded paddy test: ducksalad; settings: scale 0 to 100 (0 no effect, 100 complete control)
Summary of the method: as §4

[14] = system: sedge, umbrella (small-flower umbrella sedge, Cyperus difformis); test: Test C flooded paddy test: sedge, umbrella; settings: scale 0 to 100 (0 no effect, 100 complete control)
Summary of the method: as §4

rice (Oryza sativa) [15] = test: Test C flooded paddy test: rice; settings: scale 0 to 100 (0 no effect, 100 complete control)
Summary of the method: as §4

[16] = Postemergence, 125 g ai/ha, 0 to 100 scale, 0 is no effect, 100 is complete control
[17] = Postemergence, 500 g ai/ha, 0 to 100 scale, 0 is no effect, 100 is complete control
[18] = Preemergence, 125 g ai/ha, 0 to 100 scale where 0 is no effect and 100 is complete control
[19] = Preemergence, 500 g ai/ha, 0 to 100 scale (0 no effect, 100 complete control)
[20] = Flood (flooded paddy test), 62 g ai/ha, visual rating after 13 to 15 days
[21] = Flood (flooded paddy test), 125 g ai/ha, visual rating after 13 to 15 days
[22] = Flood (flooded paddy test), 250 g ai/ha, visual rating after 13 to 15 days
[23] = Postemergence, 500 g ai/ha, visual rating on 0 to 100 scale (0 no effect, 100 complete control), approximately ten days
[24] = Preemergence, 125 g ai/ha, 0 to 100 scale (0 no effect, 100 complete control)
[25] = Preemergence, 500 g ai/ha, 0 to 100 scale, 0 is no effect, 100 is complete control

CC(C)(C)c1nn(-c2ccc(F)cc2)nc1Cc1ccnc(C(F)(F)F)c1 [Compound 176]
0: Plant response rating, Crabgrass, Large [1, 16] | Crabgrass, Large plant response rating [1, 17] | Plant response rating, Crabgrass, Large [1, 18] | Plant response rating, Crabgrass, Large [1, 19] | Plant response rating, Sedge, Umbrella (0 to 100 scale, 0 is no effect, 100 is complete control) ([2]; 125 g ai/ha) | Plant response rating, Rice (0 to 100 scale, 0 is no effect, 100 is complete control) (rice (Oryza sativa) [3]; 125 g ai/ha) | Plant response rating, Wheat [4, 16] | Wheat plant response rating [4, 17] | Plant response rating, Wheat [4, 18] | Plant response rating, Wheat [4, 19] | Plant response rating, Foxtail, Giant [5, 16] | Foxtail, Giant plant response rating [5, 17] | Plant response rating, Foxtail, Giant [5, 18] | Plant response rating, Foxtail, Giant [5, 19] | Plant response rating, Corn (corn (Zea mays); [16]) | Corn plant response rating (corn (Zea mays); [17]) | Plant response rating, Corn (corn (Zea mays); [18]) | Plant response rating, Corn (corn (Zea mays); [19]) | Plant response rating, Pigweed [6, 16] | Pigweed plant response rating [6, 17] | Plant response rating, Pigweed [6, 18] | Plant response rating, Pigweed [6, 19] | Plant response rating, Ducksalad (0 to 100 scale, 0 is no effect, 100 is complete control) ([7]; 125 g ai/ha) | Plant response rating, Morningglory [8, 16] | Morningglory plant response rating [8, 17] | Plant response rating, Morningglory [8, 18] | Plant response rating, Morningglory [8, 19] | Plant response rating, Velvetleaf [9, 16] | Velvetleaf plant response rating [9, 17] | Plant response rating, Velvetleaf [9, 18] | Plant response rating, Velvetleaf [9, 19] | Plant response rating, Barnyardgrass [10, 16] | Barnyardgrass plant response rating [10, 17] | Plant response rating, Barnyardgrass [10, 18] | Plant response rating, Barnyardgrass [10, 19] | Plant response rating, Barnyardgrass (0 to 100 scale, 0 is no effect, 100 is complete control) ([11]; 125 g ai/ha)

CCCCc1nn(-c2ccc(C(F)(F)F)cc2)nc1Oc1ccnc(C(F)(F)F)c1 [Compound 184]
90: Crabgrass, Large plant response rating [1, 17] | Plant response rating, Foxtail, Giant [5, 19] | Plant response rating, Pigweed [6, 18] | Velvetleaf plant response rating [9, 17]
70: Plant response rating, Crabgrass, Large [1, 18] | Plant response rating, Foxtail, Giant [5, 18]
80: Foxtail, Giant plant response rating [5, 17]
30: Plant response rating, Foxtail, Giant [5, 16] | Plant response rating, Morningglory [8, 16] | Plant response rating, Velvetleaf [9, 19] | Barnyardgrass plant response rating [10, 17]
0: Plant response rating, Wheat [4, 18] | Plant response rating, Wheat [4, 19] | Plant response rating, Corn (corn (Zea mays); [18]) | Plant response rating, Corn (corn (Zea mays); [19]) | Plant response rating, Ducksalad (0 to 100 scale, 0 is no effect, 100 is complete control) ([7]; 250 g ai/ha) | Plant response rating, Morningglory [8, 18] | Plant response rating, Velvetleaf [9, 18] | Plant response rating, Barnyardgrass [10, 18]
20: Wheat plant response rating [4, 17] | Corn plant response rating (corn (Zea mays); [17])
100: Plant response rating, Crabgrass, Large [1, 19] | Plant response rating, Pigweed [6, 16] | Pigweed plant response rating [6, 17] | Plant response rating, Pigweed [6, 19] | Morningglory plant response rating [8, 17]
10: Plant response rating, Wheat [4, 16] | Plant response rating, Corn (corn (Zea mays); [16]) | Plant response rating, Morningglory [8, 19] | Plant response rating, Barnyardgrass [10, 16]
40: Plant response rating, Velvetleaf [9, 16]
50: Plant response rating, Crabgrass, Large [1, 16] | Plant response rating, Barnyardgrass [10, 19]
25: Plant response rating, Rice (0 to 100 scale, 0 is no effect, 100 is complete control) (rice (Oryza sativa) [3]; 250 g ai/ha) | Plant response rating, Barnyardgrass (0 to 100 scale, 0 is no effect, 100 is complete control) ([11]; 250 g ai/ha)
60: Plant response rating, Sedge, Umbrella (0 to 100 scale, 0 is no effect, 100 is complete control) ([2]; 250 g ai/ha)

COc1nn(-c2ccc(C(F)(F)F)cc2)nc1Cn1nc(C(F)(F)F)cc1C(F)(F)F [Compound 30]
30: Plant response rating, Sedge, Umbrella [14, 22]
20: Plant response rating, Sedge, Umbrella [14, 21]
0: Plant response rating, Barnyardgrass [12, 20] | Plant response rating, Barnyardgrass [12, 21] | Plant response rating, Barnyardgrass [12, 22] | Plant response rating, Barnyardgrass ([12]; Flood, 31 g ai/ha) | Plant response rating, Ducksalad [13, 20] | Plant response rating, Ducksalad [13, 21] | Plant response rating, Ducksalad [13, 22] | Plant response rating, Ducksalad ([13]; Flood, 31 g ai/ha) | Crabgrass, Large plant response rating [1, 16] | Crabgrass, Large plant response rating [1, 23] | Plant response rating, Crabgrass, Large [1, 24] | Plant response rating, Crabgrass, Large [1, 25] | Plant response rating, Sedge, Umbrella [14, 20] | Plant response rating, Sedge, Umbrella ([14]; Flood, 31 g ai/ha) | Plant response rating, Rice (rice (Oryza sativa) [15]; [20]) | Plant response rating, Rice (rice (Oryza sativa) [15]; [21]) | Plant response rating, Rice (rice (Oryza sativa) [15]; [22]) | Plant response rating, Rice (rice (Oryza sativa) [15]; Flood, 31 g ai/ha) | Wheat plant response rating [4, 16] | Wheat plant response rating [4, 23] | Plant response rating, Wheat [4, 24] | Plant response rating, Wheat [4, 25] | Foxtail, Giant plant response rating [5, 16] | Foxtail, Giant plant response rating [5, 23] | Plant response rating, Foxtail, Giant [5, 24] | Plant response rating, Foxtail, Giant [5, 25] | Corn plant response rating (corn (Zea mays); [16]) | Corn plant response rating (corn (Zea mays); [23]) | Plant response rating, Corn (corn (Zea mays); [24]) | Plant response rating, Corn (corn (Zea mays); [25]) | Pigweed plant response rating [6, 16] | Pigweed plant response rating [6, 23] | Plant response rating, Pigweed [6, 24] | Plant response rating, Pigweed [6, 25] | Morningglory plant response rating [8, 16] | Morningglory plant response rating [8, 23] | Plant response rating, Morningglory [8, 24] | Plant response rating, Morningglory [8, 25] | Velvetleaf plant response rating [9, 16] | Velvetleaf plant response rating [9, 23] | Plant response rating, Velvetleaf [9, 24] | Plant response rating, Velvetleaf [9, 25] | Barnyardgrass plant response rating [10, 16] | Barnyardgrass plant response rating [10, 23] | Plant response rating, Barnyardgrass [10, 24] | Plant response rating, Barnyardgrass [10, 25]

Cc1nn(-c2ccc(C(F)(F)F)cc2)nc1Cn1c(Cl)nc(C(F)(F)F)c1Cl [Compound 11]
20: Pigweed plant response rating [6, 23]
0: Plant response rating, Barnyardgrass [12, 20] | Plant response rating, Barnyardgrass [12, 22] | Plant response rating, Ducksalad [13, 20] | Plant response rating, Ducksalad [13, 22] | Crabgrass, Large plant response rating [1, 16] | Crabgrass, Large plant response rating [1, 23] | Plant response rating, Crabgrass, Large [1, 24] | Plant response rating, Crabgrass, Large [1, 25] | Plant response rating, Sedge, Umbrella [14, 20] | Plant response rating, Sedge, Umbrella [14, 22] | Plant response rating, Rice (rice (Oryza sativa) [15]; [20]) | Plant response rating, Rice (rice (Oryza sativa) [15]; [22]) | Wheat plant response rating [4, 16] | Wheat plant response rating [4, 23] | Plant response rating, Wheat [4, 24] | Plant response rating, Wheat [4, 25] | Foxtail, Giant plant response rating [5, 16] | Foxtail, Giant plant response rating [5, 23] | Plant response rating, Foxtail, Giant [5, 24] | Plant response rating, Foxtail, Giant [5, 25] | Corn plant response rating (corn (Zea mays); [16]) | Corn plant response rating (corn (Zea mays); [23]) | Plant response rating, Corn (corn (Zea mays); [24]) | Plant response rating, Corn (corn (Zea mays); [25]) | Pigweed plant response rating [6, 16] | Plant response rating, Pigweed [6, 24] | Plant response rating, Pigweed [6, 25] | Morningglory plant response rating [8, 16] | Morningglory plant response rating [8, 23] | Plant response rating, Morningglory [8, 24] | Plant response rating, Morningglory [8, 25] | Velvetleaf plant response rating [9, 16] | Velvetleaf plant response rating [9, 23] | Plant response rating, Velvetleaf [9, 24] | Plant response rating, Velvetleaf [9, 25] | Barnyardgrass plant response rating [10, 16] | Barnyardgrass plant response rating [10, 23] | Plant response rating, Barnyardgrass [10, 24] | Plant response rating, Barnyardgrass [10, 25]

— patent publication US9302999B2, “Substituted triazoles as herbicides” (E. I. DU PONT DE NEMOURS AND COMPANY, priority 2012, dated 2016)
